Patent US20140018375A1, “BIOLOGICAL MARKERS PREDICTIVE OF ANTI-CANCER RESPONSE TO EPIDERMAL GROWTH FACTOR RECEPTOR KINASE INHIBITORS” (priority 2005, published 2014)
“Also recorded” adds a separate entry of the source. Like-named read-outs stand apart in the source and are kept apart here.

Key:
[1] = system: A549 xenograft; assay: NSCLC xenograft tumor growth inhibition, A549; format: in vivo, mouse; details: oral gavage once a day for 14 days
Procedure: (§1) Female CD-1 nu/nu mice (Charles River Laboratories) were implanted with harvested NSCLC tumor cells in a single subcutaneous site on the flank of the mice in the axillary region. Tumors were allowed to grow to 200±50 mm^3, at which time the animals were sorted into treatment groups of 8 animals per group based on weight (±1 g body weight) and tattooed on the tail for permanent identification. Tumor volumes and body weights were determined twice weekly. The tumor volume was determined by measuring in two directions with vernier calipers and calculated using the formula: Tumor volume=(length×width^2)/2. The data were plotted as the % change in mean values of tumor volume and body weight for each group. […]. Tumor growth inhibition studies were dosed by oral gavage once a day for 14 days. Pharmacodynamic studies were dosed by oral gavage for 1-3 days with tumors from 4 control and 4 TARCEVA™ treated animals harvested and snap frozen in liquid nitrogen 4 hours after dosing on Days 1, 2 and 3.

[2] = system: H358 xenograft; assay: NSCLC xenograft tumor growth inhibition, H358; format: in vivo, mouse; details: oral gavage once a day for 14 days
Procedure: as §1

[3] = system: Calu6 xenograft; assay: NSCLC xenograft tumor growth inhibition, Calu6; format: in vivo, mouse; details: oral gavage once a day for 14 days
Procedure: as §1

[4] = system: H460 xenograft; assay: NSCLC xenograft tumor growth inhibition, H460; format: in vivo, mouse; details: oral gavage once a day for 14 days
Procedure: as §1

[5] = system: H1703; assay: Cell-Titer Glo cell viability assay, H1703; format: cell-based, human; details: for EC50: Homo sapiens
Procedure: (§2) On day 1, NSCLC cells were plated 3-5×10^4 cells/well in 96 well plates in their normal serum-containing media. […] Manufacturers instructions were followed for the assay. Experiments were conducted in triplicate to at least an n=3. Data was normalized as a percentage inhibition compared to DMSO only control wells and concentration-response analysis was performed using Prizm graphing software.
(§3) The concentration response curves were analyzed in two ways.

[6] = system: BxPC3; assay: growth inhibition of pancreatic cell line in vitro, BxPC3; format: cell-based
Excerpt: (§4) We next extended these studies to ask whether these observations would be applicable to other cancer cell types.

[7] = system: H358; assay: Cell-Titer Glo cell viability assay, H358; format: cell-based, human
Procedure: as §2, §3

[8] = system: H441; assay: Cell-Titer Glo cell viability assay, H441; format: cell-based, human
Procedure: as §2, §3

[9] = system: H460; assay: Cell-Titer Glo cell viability assay, H460; format: cell-based, human; details: for EC50: Homo sapiens
Procedure: as §2, §3

[10] = system: H322; assay: Cell-Titer Glo cell viability assay, H322; format: cell-based, human
Procedure: as §2, §3

[11] = system: SW1573; assay: Cell-Titer Glo cell viability assay, SW1573; format: cell-based, human
Procedure: as §2, §3

[12] = system: NSCLC cells; assay: anti-phosphotyrosine capture and LC-MS/MS (iTRAQ) after erlotinib exposure; format: cell-based, human
Procedure: Anti-phosphotyrosine immunoaffinity resins were prepared by covalent coupling to a solid support by standard methods. Freshly prepared immunoaffinity resins were used for each biological experiment to maximize binding and reduce carryover. Briefly, anti-phosphotyrosine antibodies were crosslinked to solid-support and non-covalently bound IgG removed by low pH elution. […] Proteins isolated by anti-phosphotyrosine affinity selection were measured by iTRAQ labeling of tryptic peptides as previously described (Ross et al, (2004) Mol Cell Proteomics 3(12) 1154-1169; Haley et al., 2004). Peptide masses and sequence information were determined by electrospray LC-MS/MS and database searching. Peptides with confidence levels of >=90% with scores of >=20 were considered, after which spectra were inspected manually. […]. Proteins were clustered by temporal log2 protein expression ratios using Euclidian hierarchical methods and self-organizing maps.
Proteins associated with survival signaling and epithelial-mesenchymal cell phenotypes were isolated and measured using multiple experimental approaches, including mass spectrometry. Individual protein abundance, or extent of phosphorylation on tyrosine residues, was compared between different NSCLC tumor lines. Mass spectrometry approaches additionally included cellular fractionation, phosphotyrosine protein-capture and phosphopeptide-capture using four NSCLC model cell lines. The NSCLC lines were chosen to reflect a range of sensitivities to pharmacological EGFR inhibition both in vitro and in xenografts. These NSCLC lines also span both epithelial and mesenchymal-like tumor phenotypes arising from EMT-like transitions occurring during tumor progression. Two MS quantitation approaches were pursued. First, between-cell comparisons were performed where membrane-particulate and cytosolic fractions were isolated and differences in protein abundance measured. In both cases the iTRAQ peptide labeling method was used to allow relative quantitation of proteins isolated under the different biological conditions. […]. Protein samples were proteolytically cleaved with trypsin, separately labeled with isobaric stable isotope mass labels (iTRAQ; Ross et al., 2005; Petti et al. 2005), combined and subjected to LC-MS/MS. Protein identification criteria conformed to the guidelines proposed by Bradshaw et al. (Bradshaw R. A., Burlingame A. L., Carr S., and Aebersold R. (2006) Mol Cell Proteomics 5:787-788).

[13] = system: H292 xenograft; assay: NSCLC xenograft tumor growth inhibition, H292; format: in vivo, mouse; details: oral gavage once a day for 14 days
Procedure: as §1

[14] = system: A549; assay: Cell-Titer Glo cell viability assay, A549; format: cell-based, human
Procedure: as §2, §3

[15] = system: H441 xenograft; assay: NSCLC xenograft tumor growth inhibition, H441; format: in vivo, mouse; details: oral gavage once a day for 14 days
Procedure: as §1

[16] = system: Calu6; assay: Cell-Titer Glo cell viability assay, Calu6; format: cell-based, human; details: for EC50: Homo sapiens
Procedure: as §2, §3

[17] = system: MiaPaca2; assay: growth inhibition of pancreatic cell line in vitro, MiaPaca2; format: cell-based
Excerpt: as §4

[18] = system: H292; assay: Cell-Titer Glo cell viability assay, H292; format: cell-based, human
Procedure: as §2, §3

## C#Cc1cccc(Nc2ncnc3cc(OCCOC)c(OCCOC)cc23)c1 [erlotinib, [6,7-bis(2-methoxyethoxy)-4-quinazolin-4-yl]-(3-ethynylphenyl)amine]
[1]
  % TGI Day 15: 49%
[2]
  % TGI Day 15: 25%
[3]
  % TGI Day 15: 0%
[4]
  % TGI Day 15: 6%
[5]
  Max. Inhibition (%): 30%
[5]; H1703
  Classification of sensitivity to erlotinib-mediated growth inhibition: relatively insensitive
[5]; NCI-H1703, 72 h, read-out: EC50 Half Maximal
  EC50: 7 µM
[5]; NCI-H1703, read-out: EC50, growth inhibition in vitro
  EC50: > 10 µM
[6]
  sensitivity to growth inhibition by erlotinib: sensitive
[7]
  Max. Inhibition (%): 72%
[7]; H358, in vitro and in xenografts
  Classification of sensitivity to erlotinib-mediated growth inhibition: Sensitive
[7]; Homo sapiens, NCI-H358, 72 h, read-out: EC50 Half Maximal
  EC50: 0.6 µM
[8]
  Max. Inhibition (%): 55%
[8]; H441, in vitro and in xenografts
  Classification of sensitivity to erlotinib-mediated growth inhibition: Sensitive; also recorded: intermediate
[8]; Homo sapiens, NCI-H441, 72 h, read-out: EC50 Half Maximal
  EC50: 2 µM
[9]
  Max. Inhibition (%): 30%
[9]; H460, in vitro and in xenografts
  Classification of sensitivity to erlotinib-mediated growth inhibition: relatively insensitive
[9]; NCI-H460, 72 h, read-out: EC50 Half Maximal
  EC50: 5 µM
[9]; NCI-H460, read-out: EC50, growth inhibition in vitro
  EC50: > 10 µM
[10]
  Max. Inhibition (%): 80%
[10]; H322
  Classification of sensitivity to erlotinib-mediated growth inhibition: Sensitive
[10]; Homo sapiens, NCI-H322, 72 h, read-out: EC50 Half Maximal
  EC50: 0.4 µM
[11]
  Max. Inhibition (%): 25%
[11]; Homo sapiens, SW1573, 72 h, read-out: EC50 Half Maximal
  EC50: 9 µM
[11]; SW1573
  Classification of sensitivity to erlotinib-mediated growth inhibition: relatively insensitive
[12]; H1703 cells, 1, 4 and 24 hours
  phosphocapture of the p21-activated kinase PAK2: stimulated at all time points
[12]; cells with an epithelial phenotype, within 1 hour of erlotinib exposure (1 μM)
  regulation of Actin-like protein-6A and β-actin: upregulation
[12]; mesenchymal-like NSCLC cells, within 1 hour of erlotinib exposure (1 μM)
  regulation of α- and γ-actins and vimentin phosphoproteins: Down regulation
[12]; mesenchymal-like cells
  phosphocapture of Rho-GEF7: significant erlotinib-dependent increase
[12]; primarily associated with an epithelial cell state
  tyrosine phosphorylation for Erk2, ubiquitin and the tyrosine phosphatases SHP-2 and BDP-18: downregulation
[13]
  % TGI Day 15: 85%
[14]
  Max. Inhibition (%): 30%
[14]; A549, in vitro and in xenografts
  Classification of sensitivity to erlotinib-mediated growth inhibition: intermediate sensitivity
[14]; Homo sapiens, A549, 72 h, read-out: EC50 Half Maximal
  EC50: 5 µM
[15]
  % TGI Day 15: 60%
[16]
  Max. Inhibition (%): 46%
[16]; Calu6, in vitro and in xenografts
  Classification of sensitivity to erlotinib-mediated growth inhibition: relatively insensitive
[16]; Calu-6, 72 h, read-out: EC50 Half Maximal
  EC50: > 10 µM
[16]; Calu-6, read-out: EC50, growth inhibition in vitro
  EC50: > 10 µM
[17]
  sensitivity to growth inhibition by erlotinib: relatively insensitive
[18]
  Max. Inhibition (%): 69%
[18]; H292, in vitro and in xenografts
  Classification of sensitivity to erlotinib-mediated growth inhibition: Sensitive
[18]; Homo sapiens, NCI-H292, 72 h, read-out: EC50 Half Maximal
  EC50: 0.1 µM
